Results reported in patent publication US8513229B2, “4-Azetidinyl-1-phenyl-cyclohexane antagonists of CCR2” (Janssen Pharmaceutica NV, priority 2009, dated 2013).

Target: T1, CCR2 (Homo sapiens, UniProt P41597)
T1 construct: host or cells: THP-1 human monocytic cells
T1 sequence (P41597 1-360 isoform P41597-2): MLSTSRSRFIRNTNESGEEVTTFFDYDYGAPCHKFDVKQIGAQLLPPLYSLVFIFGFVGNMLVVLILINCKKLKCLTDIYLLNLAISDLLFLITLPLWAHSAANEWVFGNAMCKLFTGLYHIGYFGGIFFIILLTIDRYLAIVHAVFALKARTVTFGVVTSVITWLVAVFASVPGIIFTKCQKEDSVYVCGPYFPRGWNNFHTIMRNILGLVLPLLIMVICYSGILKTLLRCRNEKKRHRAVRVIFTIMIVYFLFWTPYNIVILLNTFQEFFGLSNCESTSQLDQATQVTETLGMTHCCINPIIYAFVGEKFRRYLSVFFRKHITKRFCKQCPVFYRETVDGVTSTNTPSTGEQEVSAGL
Experiment: MCP-1 Receptor Binding Assay in THP-1 Cells
Details: 0.5 nM 125I labeled MCP-1, 2 hours at 30° C., read-out: Inhibition of MCP-1 Binding IC50 CCR2 Binding
Protocol: MCP-1 Receptor Binding Assay in THP-1 Cells
Human monocytic cell line THP-1 cells were obtained from American Type Culture Collection (Manassas, Va., USA). […] The cell density was maintained […].
1 μM cold MCP-1 was used for nonspecific binding.

| SMILES | IC50 [nM] |
| --- | --- |
| O=C(CNC(=O)c1cccc(C(F)(F)F)c1)NC1CN(C2CCC(O)(c3ccc4c(c3)OCCO4)CC2)C1 (single isomer, unassigned) [Example 32a, N-({1-[4-(2,3-Dihydro-benzo[1,4]dioxin-6-yl)-4-hydroxy-cyclohexyl]-azetidin-3-ylcarbamoyl}-methyl)-3-trifluoromethyl-benzamide] | 63 |
| O=C(CNC(=O)c1ccc([N+](=O)[O-])c(C(F)(F)F)c1)NC1CN(C2CCC(c3ccccc3)CC2)C1 (stereo not shown) [Example 73, 4-Nitro-N-{[1-(4-phenyl-cyclohexyl)-azetidin-3-ylcarbamoyl]-methyl}-3-trifluoromethyl-benzamide] | 490 |
| Cc1cccc(C2(O)CCC(N3CC(NC(=O)CNC(=O)c4cccc(C(F)(F)F)c4)C3)CC2)c1 (stereo not shown) [Example 60, N-{[1-(4-Hydroxy-4-m-tolyl-cyclohexyl)-azetidin-3-ylcarbamoyl]-methyl}-3-trifluoromethyl-benzamide] | 100 |
| O=C(CNC(=O)c1cccc(C(F)(F)F)c1)NC1CN(C2CCC(c3ccc(Cc4nn[nH]n4)cc3)CC2)C1 (stereo not shown) [Example 23, N-[(1-{4-[4-(2H-Tetrazol-5-ylmethyl)-phenyl]-cyclohexyl}-azetidin-3-ylcarbamoyl)-methyl]-3-trifluoromethyl-benzamide] | 260 |
| CSc1cccc(C2(O)CCC(N3CC(NC(=O)CNC(=O)c4cccc(C(F)(F)F)c4)C3)CC2)c1 (single isomer, unassigned) [Example 38a, N-({1-[4-Hydroxy-4-(3-methylsulfanyl-phenyl)-cyclohexyl]-azetidin-3-ylcarbamoyl}-methyl)-3-trifluoromethyl-benzamide] | 190 |
| CS(=O)(=O)N(c1cc(C(=O)NCC(=O)NC2CN(C3CCC(c4ccccc4)CC3)C2)cc(C(F)(F)F)c1)S(C)(=O)=O (stereo not shown) [Example 80, 3-Bis methanesulfonyl-N-{[1-(4-phenyl-cyclohexyl)-azetidin-3-ylcarbamoyl]-methyl}-5-trifluoromethyl-benzamide] | 420 |
| O=C(CNC(=O)c1cccc(C(F)(F)F)c1)NC1CN(C2CCC(O)(c3ccc4nc[nH]c4c3)CC2)C1 (single isomer, unassigned) [Example 34a, N-({1-[4-(3H-Benzoimidazol-5-yl)-4-hydroxy-cyclohexyl]-azetidin-3-ylcarbamoyl}-methyl)-3-trifluoromethyl-benzamide] | 310 |
| O=C(CNC(=O)c1cccc(C(F)(F)F)c1)NC1CN(C2CCC(c3ccc(N4CCCC4)cc3)CC2)C1 (stereo not shown) [Example 13, N-({1-[4-(4-Pyrrolidin-1-yl-phenyl)-cyclohexyl]-azetidin-3-ylcarbamoyl}-methyl)-3-trifluoromethyl-benzamide] | 61 |
| Cc1ccc(C2(O)CCC(N3CC(NC(=O)CNC(=O)c4cccc(C(F)(F)F)c4)C3)CC2)cc1 (stereo not shown) [Example 59, N-{[1-(4-Hydroxy-4-p-tolyl-cyclohexyl)-azetidin-3-ylcarbamoyl]-methyl}-3-trifluoromethyl-benzamide] | 100 |
| CN(C)c1ccc(C(F)(F)F)cc1C(=O)NCC(=O)NC1CN(C2CCC(c3ccccc3)CC2)C1 (stereo not shown) [Example 69, 2-Dimethylamino-N-{[1-(4-phenyl-cyclohexyl)-azetidin-3-ylcarbamoyl]-methyl}-5-trifluoromethyl-benzamide] | 240 |
| O=C(CNC(=O)c1cc(C(F)(F)F)ccc1N1CCCC1)NC1CN(C2CCC(c3ccccc3)CC2)C1 (stereo not shown) [Example 70, N-{[1-(4-Phenyl-cyclohexyl)-azetidin-3-ylcarbamoyl]-methyl}-2-pyrrolidin-1-yl-5-trifluoromethyl-benzamide] | 1700 |
| NC1(c2ccccc2)CCC(N2CC(NC(=O)CNC(=O)c3cccc(C(F)(F)F)c3)C2)CC1 (single isomer, unassigned) [Example 84a, N-{[1-(4-Amino-4-phenyl-cyclohexyl)-azetidin-3-ylcarbamoyl]-methyl}-3-trifluoromethyl-benzamide] | 240 |

Second part, the compound after the results:

| IC50 [nM] | SMILES |
| --- | --- |
| 8600 | N=C(N)Cc1ccc(C2CCC(N3CC(NC(=O)CNC(=O)c4cccc(C(F)(F)F)c4)C3)CC2)cc1 (stereo not shown) [Example 22, N-({1-[4-(4-Carbamimidoylmethyl-phenyl)-cyclohexyl]-azetidin-3-ylcarbamoyl}-methyl)-3-trifluoromethyl-benzamide] |
| 280 | CS(=O)(=O)c1ccc(C2CCC(N3CC(NC(=O)CNC(=O)c4cccc(C(F)(F)F)c4)C3)CC2)cc1 (stereo not shown) [Example 29, N-({1-[4-(4-Methanesulfonyl-phenyl)-cyclohexyl]-azetidin-3-ylcarbamoyl}-methyl)-3-trifluoromethyl-benzamide] |
| 85 | N#Cc1cccc(C2CCC(N3CC(NC(=O)CNC(=O)c4cccc(C(F)(F)F)c4)C3)CC2)c1 (single isomer, unassigned) [Example 8a, N-({1-[4-(3-Cyano-phenyl)-cyclohexyl]-azetidin-3-ylcarbamoyl}-methyl)-3-trifluoromethyl-benzamide] |
| 46 | Nc1ccc(C(=O)NCC(=O)NC2CN(C3CCC(c4ccccc4)CC3)C2)cc1C(F)(F)F (stereo not shown) [Example 74, 4-Amino-N-{[1-(4-phenyl-cyclohexyl)-azetidin-3-ylcarbamoyl]-methyl}-3-trifluoromethyl-benzamide] |
| 30 | N#CCc1ccc(C2CCC(N3CC(NC(=O)CNC(=O)c4cccc(C(F)(F)F)c4)C3)CC2)cc1 (single isomer, unassigned) [Example 21a, N-({1-[4-(4-Cyanomethyl-phenyl)-cyclohexyl]-azetidin-3-ylcarbamoyl}-methyl)-3-trifluoromethyl-benzamide] |
| 9 | O=C(CNC(=O)c1cccc(C(F)(F)F)c1)NC1CN(C2CCC(c3ccc4oc(=O)[nH]c4c3)CC2)C1 (single isomer, unassigned) [Example 5a, N-({1-[4-(2-oxo-2,3-dihydro-benzooxazol-5-yl)-cyclohexyl]-azetidin-3-ylcarbamoyl}-methyl)-3-trifluoromethyl-benzamide] |
| 200 | O=C(CNC(=O)c1ccc(F)c(C(F)(F)F)c1)NC1CN(C2CCC(c3ccccc3)CC2)C1 (single isomer, unassigned) [Example 71a, 4-Fluoro-N-{[1-(4-phenyl-cyclohexyl)-azetidin-3-ylcarbamoyl]-methyl}-3-trifluoromethyl-benzamide] |
| 21 | O=C(CNC(=O)c1cccc(C(F)(F)F)c1)NC1CN(C2CCC(c3ccc(O)cc3)CC2)C1 (single isomer, unassigned) [Example 40a, N-({1-[4-(4-Hydroxy-phenyl)-cyclohexyl]-azetidin-3-ylcarbamoyl}-methyl)-3-trifluoromethyl-benzamide] |
| 33 | O=C(CNC(=O)c1cccc(C(F)(F)F)c1)NC1CN(C2CCC(c3ccccc3)CC2)C1 (single isomer, unassigned) [Example 4a, N-{[1-(4-Phenyl-cyclohexyl)-azetidin-3-ylcarbamoyl]-methyl}-3-trifluoromethyl-benzamide] |
| 45 | O=C(CNC(=O)c1cccc(C(F)(F)F)c1)NC1CN(C2CCC(c3ccc4c(c3)OCC4)CC2)C1 (single isomer, unassigned) [Example 3a, N-({1-[4-(2,3-Dihydro-benzofuran-6-yl)-cyclohexyl]-azetidin-3-ylcarbamoyl}-methyl)-3-trifluoromethylbenzamide] |
